Results as given in ChEMBL document CHEMBL1932917, “4,5-dihydropyridazin-3-one derivatives as histamine H₃ receptor inverse agonists” (Bioorg Med Chem Lett, 2012).
One block for each compound: values may come before it.

Key:
Histamine H3 receptor [1] = target: T1, Histamine H3 receptor (Homo sapiens, UniProt Q9Y5N1); assay: Displacement of [3H]NAMH from human histamine H3 receptor expressed in CHO cells; type: cell-based
Histamine H3 receptor [2] = target: Histamine H3 receptor (Rattus norvegicus, UniProt Q9QYN8); assay: Displacement of [3H]NAMH from rat histamine H3 receptor expressed in CHO cells; type: cell-based
Histamine H3 receptor [3] = target: T1, Histamine H3 receptor; assay: Antagonist activity at human histamine H3 receptor by [35S]GTPgammaS binding assay; type: functional
[4] = Half life in mouse liver microsomes; type: ADME, Microsome
[5] = Half life in rat liver microsomes; type: ADME, Microsome
Histamine H3 receptor [6] = target: T1, Histamine H3 receptor; assay: Inverse agonist activity at human histamine H3 receptor by [35S]GTPgammaS binding assay; type: functional
Cytochrome P450 3A4 = Cytochrome P450 3A4 (Homo sapiens, UniProt P08684); assay: Inhibition of CYP3A4; type: ADME
[7] = Half life in monkey liver microsomes; type: ADME, Macaca mulatta, Microsome; settings: rhesus monkey
[8] = Oral bioavailability in rat at 5 mg/kg; type: ADME, organism-based; settings: in vivo
[9] = Ratio of drug level in brain to plasma in rat at 10 mg/kg, ip after 6 hrs; type: ADME, organism-based; set-up: dose 10 mg/kg, route intraperitoneal; settings: brain/plasma, read-out: BPR
[10] = Volume of distribution in rat at 1 mg/kg, iv; type: ADME, organism-based; set-up: dose 1 mg/kg, route intravenous; settings: in vivo
[11] = Half life in dog liver microsomes; type: ADME, Canis lupus familiaris, Microsome
[12] = Half life in rat at 1 mg/kg, iv; type: ADME, organism-based; set-up: dose 1 mg/kg, route intravenous; settings: in vivo
[13] = Cmax in rat at 5 mg/kg, po; type: ADME, organism-based; set-up: dose 5 mg/kg, route oral; settings: in vivo
Cytochrome P450 1A2 = target: T2, Cytochrome P450 1A2 (Homo sapiens, UniProt P05177); assay: Inhibition of CYP1A2; type: ADME
T2 sequence (P05177 whole entry): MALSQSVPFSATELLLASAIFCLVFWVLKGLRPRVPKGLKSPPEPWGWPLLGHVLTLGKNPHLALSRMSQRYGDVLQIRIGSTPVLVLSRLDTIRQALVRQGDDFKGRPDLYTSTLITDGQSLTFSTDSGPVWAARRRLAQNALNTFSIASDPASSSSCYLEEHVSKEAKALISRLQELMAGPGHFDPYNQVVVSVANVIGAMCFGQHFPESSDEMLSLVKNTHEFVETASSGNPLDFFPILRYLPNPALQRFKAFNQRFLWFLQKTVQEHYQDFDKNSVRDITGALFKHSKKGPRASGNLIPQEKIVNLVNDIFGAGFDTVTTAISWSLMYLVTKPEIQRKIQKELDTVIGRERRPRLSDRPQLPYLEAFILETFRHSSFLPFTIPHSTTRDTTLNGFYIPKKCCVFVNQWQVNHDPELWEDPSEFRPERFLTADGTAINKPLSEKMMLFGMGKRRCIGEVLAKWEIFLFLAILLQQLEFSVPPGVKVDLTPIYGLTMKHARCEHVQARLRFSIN

Cytochrome P450 2D6 = Cytochrome P450 2D6 (Homo sapiens, UniProt P10635); assay: Inhibition of CYP2D6; type: ADME
[14] = Half life in human liver microsomes; type: ADME, Microsome
[15] = AUC in rat at 5 mg/kg, po; type: ADME, organism-based, Plasma; set-up: dose 5 mg/kg, route oral; settings: plasma
Cytochrome P450 2C19 = Cytochrome P450 2C19 (Homo sapiens, UniProt P33261); assay: Inhibition of CYP2C19; type: ADME
Cytochrome P450 2C9 = Cytochrome P450 2C9 (Homo sapiens, UniProt P11712); assay: Inhibition of CYP2C9; type: ADME
Chain of Cytochrome P450 2C9 (P11712 whole entry): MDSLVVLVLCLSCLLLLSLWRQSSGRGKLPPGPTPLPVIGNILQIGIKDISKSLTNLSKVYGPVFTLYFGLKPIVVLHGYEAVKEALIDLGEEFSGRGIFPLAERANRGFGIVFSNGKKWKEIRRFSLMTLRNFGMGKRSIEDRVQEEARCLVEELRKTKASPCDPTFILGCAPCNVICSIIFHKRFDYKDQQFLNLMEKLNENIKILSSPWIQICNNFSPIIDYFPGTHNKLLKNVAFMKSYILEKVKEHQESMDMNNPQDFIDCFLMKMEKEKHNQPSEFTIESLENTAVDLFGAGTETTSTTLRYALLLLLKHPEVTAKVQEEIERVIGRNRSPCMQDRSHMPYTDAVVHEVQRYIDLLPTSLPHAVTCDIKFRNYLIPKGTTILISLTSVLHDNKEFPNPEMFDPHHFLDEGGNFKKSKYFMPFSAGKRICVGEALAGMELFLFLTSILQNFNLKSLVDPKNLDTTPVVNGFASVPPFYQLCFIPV

Chain of Histamine H3 receptor (Rattus norvegicus, UniProt Q9QYN8) (Q9QYN8 whole entry): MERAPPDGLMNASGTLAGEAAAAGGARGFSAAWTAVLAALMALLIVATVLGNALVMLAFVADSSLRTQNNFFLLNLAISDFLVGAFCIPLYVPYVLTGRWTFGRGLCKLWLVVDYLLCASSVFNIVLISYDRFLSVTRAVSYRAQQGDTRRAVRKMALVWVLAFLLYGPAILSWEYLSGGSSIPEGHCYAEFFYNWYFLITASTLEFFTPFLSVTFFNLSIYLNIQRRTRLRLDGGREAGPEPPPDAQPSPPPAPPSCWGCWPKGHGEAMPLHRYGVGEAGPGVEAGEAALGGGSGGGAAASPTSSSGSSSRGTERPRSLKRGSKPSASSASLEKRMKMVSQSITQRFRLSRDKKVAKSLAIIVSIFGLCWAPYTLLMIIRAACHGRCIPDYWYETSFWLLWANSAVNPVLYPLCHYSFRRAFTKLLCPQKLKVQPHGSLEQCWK
T1 sequence (Q9Y5N1 whole entry): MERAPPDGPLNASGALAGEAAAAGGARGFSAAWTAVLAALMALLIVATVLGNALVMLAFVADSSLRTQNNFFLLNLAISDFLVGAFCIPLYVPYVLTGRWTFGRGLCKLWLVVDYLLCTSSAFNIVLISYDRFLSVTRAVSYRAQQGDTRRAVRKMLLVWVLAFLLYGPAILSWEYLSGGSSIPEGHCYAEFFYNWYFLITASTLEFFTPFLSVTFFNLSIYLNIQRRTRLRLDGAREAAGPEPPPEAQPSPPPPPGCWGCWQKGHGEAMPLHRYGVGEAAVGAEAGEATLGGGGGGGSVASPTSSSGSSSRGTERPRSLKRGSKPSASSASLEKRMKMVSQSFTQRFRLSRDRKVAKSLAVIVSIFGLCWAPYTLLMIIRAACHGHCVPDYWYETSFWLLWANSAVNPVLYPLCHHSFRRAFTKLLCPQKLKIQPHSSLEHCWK
Chain of Cytochrome P450 3A4 (P08684 whole entry): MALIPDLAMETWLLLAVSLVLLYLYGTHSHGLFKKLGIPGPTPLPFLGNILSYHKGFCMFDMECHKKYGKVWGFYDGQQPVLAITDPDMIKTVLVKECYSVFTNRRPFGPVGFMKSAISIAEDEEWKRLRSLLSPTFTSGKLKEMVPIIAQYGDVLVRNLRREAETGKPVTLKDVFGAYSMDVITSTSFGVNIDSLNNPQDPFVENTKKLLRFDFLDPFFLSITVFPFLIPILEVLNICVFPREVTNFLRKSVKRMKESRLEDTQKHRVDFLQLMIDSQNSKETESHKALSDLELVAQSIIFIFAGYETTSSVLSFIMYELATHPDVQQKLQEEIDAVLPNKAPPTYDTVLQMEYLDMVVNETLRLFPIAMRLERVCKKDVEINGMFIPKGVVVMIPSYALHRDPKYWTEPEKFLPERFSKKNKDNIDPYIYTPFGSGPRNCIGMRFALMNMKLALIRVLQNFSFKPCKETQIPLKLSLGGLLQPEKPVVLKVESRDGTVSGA
Chain of Cytochrome P450 2D6 (P10635 whole entry): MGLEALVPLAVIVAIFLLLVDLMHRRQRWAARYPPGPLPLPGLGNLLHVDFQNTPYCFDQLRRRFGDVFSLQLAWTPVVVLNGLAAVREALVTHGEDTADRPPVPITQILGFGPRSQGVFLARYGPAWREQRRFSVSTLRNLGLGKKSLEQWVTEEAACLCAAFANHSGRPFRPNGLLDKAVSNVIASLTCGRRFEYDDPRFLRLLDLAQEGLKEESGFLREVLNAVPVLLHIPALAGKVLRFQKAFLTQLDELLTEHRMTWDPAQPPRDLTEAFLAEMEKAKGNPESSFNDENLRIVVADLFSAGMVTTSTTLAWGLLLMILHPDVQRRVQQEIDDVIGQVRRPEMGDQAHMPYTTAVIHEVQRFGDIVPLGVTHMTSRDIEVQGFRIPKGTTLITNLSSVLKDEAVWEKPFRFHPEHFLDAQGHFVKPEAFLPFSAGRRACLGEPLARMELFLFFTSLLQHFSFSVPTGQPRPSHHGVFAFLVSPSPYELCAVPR
Chain of Cytochrome P450 2C19 (P33261 whole entry): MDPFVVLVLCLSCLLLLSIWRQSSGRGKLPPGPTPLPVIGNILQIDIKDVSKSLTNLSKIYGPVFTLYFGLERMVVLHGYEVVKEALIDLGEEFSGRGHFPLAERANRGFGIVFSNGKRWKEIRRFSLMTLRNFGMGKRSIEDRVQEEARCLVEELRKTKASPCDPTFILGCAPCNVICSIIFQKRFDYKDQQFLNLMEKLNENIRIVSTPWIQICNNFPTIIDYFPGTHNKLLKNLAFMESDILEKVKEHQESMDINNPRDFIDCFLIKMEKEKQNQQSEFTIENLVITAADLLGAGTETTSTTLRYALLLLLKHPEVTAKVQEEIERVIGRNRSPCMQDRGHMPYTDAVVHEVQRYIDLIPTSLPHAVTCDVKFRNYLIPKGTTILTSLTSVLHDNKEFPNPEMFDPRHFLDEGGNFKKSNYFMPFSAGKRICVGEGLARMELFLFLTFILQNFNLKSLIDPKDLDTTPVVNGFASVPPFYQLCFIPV

Compound: CC1CC(c2ccc(OCCCN3CCC[C@H]3C)cc2)=NNC1=O (mixture of isomers)
- Ki (Histamine H3 receptor [1]): 1.9 nM
- Ki (Histamine H3 receptor [2]): 4 nM

Compound: CC1CC(=O)NN=C1c1ccc(OCCCN2CCC[C@H]2C)cc1 (stereo in doubt; 19a) [listing 1 of 2 here]
- Kb (Histamine H3 receptor [3]): 0.68 nM

Compound: C[C@@H]1CCCN1CCCOc1ccc(C2=NN(CC(F)(F)F)C(=O)CC2)cc1
- Ki (Histamine H3 receptor [1]): 5 nM
- Ki (Histamine H3 receptor [2]): 10 nM

Compound: C[C@@H]1CCCN1CCCOc1ccc(C2=NNC(=O)C(c3ccccn3)C2)cc1 (mixture of isomers)
- Ki (Histamine H3 receptor [1]): 8.8 nM
- Ki (Histamine H3 receptor [2]): 42 nM

Compound: C[C@@H]1CCCN1CCCOc1ccc(C2=NN(Cc3ccccc3)C(=O)CC2)cc1
- Ki (Histamine H3 receptor [1]): 2 nM
- Ki (Histamine H3 receptor [2]): 25 nM

Compound: CC1CC(=O)NN=C1c1ccc(OCCCN2CCCC2)cc1 (racemic)
- Ki (Histamine H3 receptor [1]): 83 nM
- Ki (Histamine H3 receptor [2]): 85 nM

Compound: O=C1CCC(c2ccc(OCCCN3CCCCC3)cc2)=NN1CC(F)(F)F
- Ki (Histamine H3 receptor [1]): 38 nM
- Ki (Histamine H3 receptor [2]): 62 nM

Next, values leading:

- Ki (Histamine H3 receptor [1]): 20 nM
- Ki (Histamine H3 receptor [2]): 59 nM
Compound: C[C@@H]1CCCN1CCCOc1ccc(C2=NNC(=O)CC2(C)C)cc1

- Ki (Histamine H3 receptor [1]): 5.6 nM
- Ki (Histamine H3 receptor [2]): 18 nM
Compound: CC1CC(=O)NN=C1c1ccc(OCCCN2CCC[C@H]2C)cc1 (mixture of isomers)

- Kb (Histamine H3 receptor [3]): 0.54 nM
Compound: CC1CC(=O)NN=C1c1ccc(OCCCN2CCC[C@H]2C)cc1 (single isomer, unassigned; isomer 2)

- half-life [4]: > 40 min
- half-life [5]: > 40 min
- EC50 (Histamine H3 receptor [6]): 1.3 nM
- IC50 (Cytochrome P450 3A4): > 30000 nM
- half-life [7]: > 40 min
- bioavailability [8]: 40%
- Kp at 6 h [9]: 1.8
- Vd [10]: 3.5 L/kg
- half-life [11]: > 40 min
- half-life [12]: 108 min
- Cmax [13]: 301 ng/mL
- IC50 (Cytochrome P450 1A2): > 30000 nM
- IC50 (Cytochrome P450 2D6): > 30000 nM
- Ki (Histamine H3 receptor [1]): 6.8 nM
- half-life [14]: > 40 min
- AUC [15]: 1360 ng·h/mL
- Ki (Histamine H3 receptor [2]): 29 nM
- IC50 (Cytochrome P450 2C19): > 30000 nM
- IC50 (Cytochrome P450 2C9): > 30000 nM
Compound: CC1CC(=O)NN=C1c1ccc(OCCCN2CCC[C@H]2C)cc1 (stereo in doubt; 19a) [listing 2 of 2 here]
